# Tested on: T1, PDE3B
# T1 construct: Epac2-camps-PDE3B fusion biosensor
# Assay: live-cell FRET with Epac-camps/PDE3B fusion biosensors in HEK293a cells
# Format: cell-based
compound,measurement,value
"CCCCNC(=O)NS(=O)(=O)c1ccc(C)cc1 [TOL, tolbutamide]",IC50,~700 µM

# — PMC11352370, “Live Cell Monitoring of Phosphodiesterase Inhibition by Sulfonylurea Drugs” (Biomolecules, 2024)
